Experimental data as given in US20220047718A1, “Nanoparticle-Based Therapy of Inflammatory Disorders” (priority 2018, published 2022).

Assays:
[1] = test system: Imiquimod (IMQ)-induced mouse model of psoriasis
Experimental: (a) Experimental Scheme of three-day IMQ treatment with seven-day systemic therapy. (b) (upper panel) change in ear thickness between control (PBS; crosses), IMQ-treated (squares), and systemic MTX therapy receiving (1 mg/kg (upward triangles), 2 mg/kg (downward triangles), 5 mg/kg (diamonds)) animals. (Lower panels) statistical analysis of ear thickness differences between groups between days 4-7.
(a) (upper panel), change in ear thickness between control (PBS, crosses), IMQ-treated (squares), and systemic therapy receiving in addition to IMQ, 2 mg/kg MTX (upward triangles), GNPs containing 5.5 mg/kg Au (downward triangles), and MTX-GNP containing 2 mg/kg MTX and 5.5 mg/kg Au (diamonds). (Lower panels) statistical analysis of ear thickness differences between groups between days 4-7. […] Data is pooled from 2-3 independent experiments, 2 to 5 mice per condition and represented as mean±standard deviation.
Clinical efficacy and in vivo tolerability were assessed against relevant controls for both systemic (subcutaneous injection) and topical administration.
First, we evaluated tolerance of mice to MTX with a dose escalation setup (FIG. 2b).

[2] = Formulation into Carbopol 980 gel: precipitation / homogeneity; type: physicochemical; conditions: for precipitation / homogeneity in 2% Carbopol 980 gel: Carbopol 980 adjusted to pH 7.4 prior to addition
Experimental: Gels were prepared by dispersing 1-3% w/v of Carbopol polymer (w/v) into purified water with constant mixing and thus allowed to hydrate for 5 hours. Care was taken to avoid air entrapment by agitating the solution slowly on a rocker during preparation of the gel. After 5 hours, the pH of the gel was adjusted to pH 7.4 using triethylamine (Sigma-Aldrich, Lot #STBF616V) to neutralise the pH and turn the solution into a gel (triethanolamine is contemplated herein as a suitable alternative to triethylamine).
For production of methotrexate-GNP hydrogel, 2% w/v Carbopol®980 was initially dispersed for 5 hours with constant mixing. […] Plain methotrexate drug gel was prepared by dissolving MTX-PEG3-NH2 in water and adjusting the pH to pH 4.5. The MTX-PEG3-NH2 solution was added to the previously made 2% Carbopol®980 solution.
The method for formulating gold nanoparticles into Carbopol®980 gels was optimised by testing the effects of pH and speed of addition of nanoparticles using control [α-Gal][PEG8COOH]@Au GNPs. […] The gels were all stored at 4° C.
For production of methotrexate-GNP hydrogel, 2% w/v Carbopol®980 was dispersed for 5 hours with constant mixing. The pH of the Carbopol®980 solution was adjusted to pH 7.4 to produce a clear gel. […] Plain methotrexate drug gel was prepared by adding MTX-PEG3-NH2 dissolved in water to the pH 7.4 adjusted Carbopol®980 gel (2%).

Structure (SMILES) | animal wellbeing ([1]; mouse, in vivo) | tolerability / systemic toxicity (liver enzyme measurements, daily weight monitoring) ([1]; mouse, in vivo, sc, 2 mg/kg) | IMQ-induced inflammation (ear thickness) ([1]; systemic (subcutaneous), 2 mg/kg MTX daily) | ear thickness / inflammation control ([1]; systemic MTX 5 mg/kg daily) | precipitation / homogeneity in 2% Carbopol 980 gel [2] | precipitation / homogeneity in 2% Carbopol 980 gel ([2]; listed as modified methotrexate) | precipitation on addition to 2% Carbopol 980 solution ([2]; acidic addition (GNPs pH 2.6; MTX-PEG3-NH2 pH 4.5), Carbopol not neutralised)
CN(Cc1cnc2nc(N)nc(N)c2n1)c1ccc(C(=O)N[C@@H](CCC(=O)O)C(=O)O)cc1 [MTX, Methotrexate] | irrevocably impaired animal wellbeing | tolerable | no significant inflammation control | clinically effective | – | – | –
CN(Cc1cnc2nc(N)nc(N)c2n1)c1ccc(C(=O)NC(CCC(=O)NCCCOCCOCCOCCCN)C(=O)O)cc1 (stereo not shown) [MTX-PEG3-NH2, 4-[(3-{2-[2-(3-aminopropoxy)ethoxy]ethoxy}propyl)carbamoyl]-2-[(4-{[(2,4-diaminopteridin-6-yl)methyl](methyl)amino}phenyl)formamido]butanoic acid] | – | – | – | – | no precipitation | without precipitation | small level of yellow precipitation
